Measured values taken from patent US20080103159A1, “Composition Comprising Ocaperidone” (priority 2005, published 2008).
Converted amounts (≈) assume the structure as drawn.

Experiments:
[1] = Solubility of ocaperidone in water and buffers of gastro-intestinal fluids; type: physicochemical
Method: Ocaperidone is virtually insoluble in water. Its water solubility is less or equal to 0.007 mg per mL. […] In order to be absorbed uniformly from the gastrointestinal tract after oral administration, the drug must be dissolved and must remain in the solution for absorption. The pH of the gastrointestinal tract varies from pH 1 to 5 in the stomach and pH 4 to 7.5 in the intestine. There is also known significant variation of the intestinal pH on an intra- and inter-individual basis in the general population. This variation is mostly attributed to factors such as gastro-intestinal motility, concomitantly administered food or drug and food habits etc. It is an object of the present invention to provide a therapeutic system for ocaperidone from which, despite its very low solubility in water (0.007 mg/mL), is dispensed/released in the surrounding intestinal environment in a dissolved state. This invention eliminates the effect of surrounding pH on the solubility of ocaperidone. In addition, this improvement in solubility makes this therapeutic system to function appropriately from the bioavailability point of view and overcomes the inter- and intra-individual variability.

[2] = Bioavailability studies with conventional oral dosage forms in animals; type: in vivo
Source text: (§1) One of the objects of the invention is to overcome these drawbacks observed with conventional dosage forms.

[3] = Bioavailability studies with conventional oral dosage forms in humans; type: in vivo; conditions: within a patient and between patients
Source text: as §1

With Cc1nc2c(C)cccn2c(=O)c1CCN1CCC(c2noc3cc(F)ccc23)CC1 [Ocaperidone] the “solubility in the buffers of gastro-intestinal fluids” value ([1]; buffers of pH 3.0 and above) was “in the same range as that of water”, the solubility ([1]; water) was 7 µg/mL (≈ 16.6 µM) and the water solubility ([1]; water) was ≤ 0.007 mg per mL. For the same compound, the variability of bioavailability [2] was “significant high variability” and the variability of bioavailability [3] was “significant high variability”.
